This assay has as its target T1, human TNFα (Homo sapiens, UniProt P01375).
T1 construct: purchased Biosource, Camarillo, Calif
The assay can be described thus: p55 Receptor/IgG fusion protein binding assay (inhibition of TNFα capture by p55-Ig coated plate). The settings on record: inhibition of binding of TNFα to p55TNFr-IgG chimeric construct. Here is the method:
This assay was designed to identify peptides which bind to human TNFα and thereby prevent the capture of the TNFα by a microtiter plate coated with p55-Ig fusion protein. A constant concentration of human TNFα is preincubated with the test peptide and then incubated on the p55-Ig coated microtiter wells. Bound TNFα is detected using a specific antisera and an alkaline phosphatase-conjugated probe.
A 96-well, U-bottom polyvinylchloride microtiter plate was coated with 50 μl/well of p55-Ig fusion protein at 5 μg/ml in 0.01M sodium phosphate, 0.15M sodium chloride (PBS) by incubation overnight at 4° C. or 2 hours at 37° C. The fusion protein, which consists of a p55 TNF receptor protein portion and an IgG portion, can be produced as disclosed in U.S. application Ser. No. 08/010,406 filed Jan. 29, 1993 which is incorporated herein by reference. The plate was washed three times with 0.05% Tween-20 in PBS, then blocked, by adding 150 μl/well of assay buffer (10 mM N-2-hydroxyethylpiperazine-N'-[…] (HEPES) pH 7.2, containing 0.1% porcine gelatin, 0.1% Tween-80, and 0.01% sodium azide) and continuing incubation for 1 hour at 37° C. or at 4° C. for 1-7 days.
Lyophilized peptides to be tested were weighed in tared 12×75 mm polystyrene tubes and reconstituted to a concentration of 1.2 mM with assay buffer. Each suspension was sonicated in a water bath for 1-5 minutes and vortexed 15-30 seconds to disperse large particles. Serial dilutions of each peptide suspension were prepared using assay buffer in a 96-well polystyrene microtiter plate. Additional wells received Fab fragment of the mouse/human monoclonal anti-human TNFα antibody cA2 (positive control) or assay buffer (negative control). […] The polystyrene dilution plate was then sealed and incubated 1 hour at room temperature on an orbital mixer set at moderate speed.
Following the sample preincubation, blocker was discarded from the p55-Ig coated plate and blotted dry. Aliquots (50 μl) of each peptide or control were transferred into duplicate wells on the p55-Ig coated plate which was then sealed and incubated 1 hour at 37° C. Duplicate wells containing only assay buffer were included as a plate blank. After incubation the p55-Ig plate was washed three times with 0.05% Tween-20 in PBS.
To detect TNFα captured by the p55-Ig plate, all wells were incubated in succession with polyclonal rabbit anti-human TNFα (Genzyme, Boston, Mass.; 1:500 in assay buffer, 50 μl/well), biotinylated goat anti-rabbit Ig (H&L) (Vector Laboratories, Burlingame, Calif.; 1 μg/ml in assay buffer, 50 μl/well) and streptavidin-alkaline phosphatase conjugate (Pierce, Rockford, Ill.; 1 μg/ml in assay buffer, 50 μl/well). All incubations were for 1 hour at 37° C. and after each incubation the plate was washed three times with 0.05% Tween-20 in PBS. Fifty microliters of alkaline phosphatase substrate solution (alkaline buffer (Sigma, St. Louis, Mo.) diluted 1:500 in deionized water plus one 5 mg tablet of p-nitrophenyl phosphate (Sigma, St. Louis, Mo.) per 5 ml of diluted buffer) was added to all wells and incubation continued for 20 minutes at room temperature. Color development was stopped by adding to all wells 50 μl of 3N sodium hydroxide. The optical density (OD) at 405 nm was measured on a microtiter plate reader (Molecular Devices Vmax plate reader), with the plate blank wells subtracted as background. The activity of each peptide was then expressed as the percent inhibition of TNFα capture by the p55-Ig plate, relative to the amount of TNFα captured in wells containing only assay buffer (negative control), as follows:
% inhibition=100-((mean OD peptide/mean OD negative control)×100).
The inhibition of binding of TNFα to p55TNFr-IgG chimeric construct was performed as described above using several embodiments of the invention. The peptides were tested to determine the concentration necessary to inhibit TNFα by 50% (IC50) relative to TNFα activity in the absence of the peptide.

The mark [1] stands for this setting: TNFα 25 ng/ml, read-out: IC50 (concentration necessary to inhibit TNFα by 50%).
[2] abbreviates: highest value observed, read-out: maximum IC50 observed.
The mark [3] stands for this setting: lowest value observed, read-out: minimum IC50 observed.

Among the data in patent US5641751A, “Tumor necrosis factor inhibitors” (Centocor, Inc., priority 1995, dated 1997) are IC50 values, retold here.

Where two headings read alike, the source gives them in different places. Ends that are not written are not given here.

T1 sequence (P01375 77-233 limits assumed): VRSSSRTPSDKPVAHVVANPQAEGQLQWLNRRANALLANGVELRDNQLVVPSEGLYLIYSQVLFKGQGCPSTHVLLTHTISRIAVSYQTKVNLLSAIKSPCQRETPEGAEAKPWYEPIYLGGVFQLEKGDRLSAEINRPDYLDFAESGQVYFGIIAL

Turning to “SEQ ID NO:3: SEQ ID NO:3 in which the carboxy terminal tryptophan is tryptophan amide; comprises a fragment of SEQ ID NO:2 (SAASSVSFMYW-NH2)”, the IC50 under setting [1] is 23 µM, the IC50 under setting [2] turned out to be 33 µM and the IC50 under setting [3] amounted to 10 µM.
In the same order, the values of Ac-SASSSVSFMYW-NH2 [SEQ ID NO:2] are 29 µM, 60 µM and 9 µM.
With SASSSVSFMYA-NH2 [SEQ ID NO:4], the IC50 runs as follows: under setting [1], 80 µM; under setting [2], 87 µM; under setting [3], 74 µM.
With Ac-LLIYYVSNRYTGV-NH2 [SEQ ID NO:18], the IC50 by setting is: under setting [1], 307 µM; under setting [2], 829 µM; under setting [3], 29 µM.
In the same order, the values of “Ac-NINPNNGGTIYNQFKFGKG-NH2 [SEQ ID NO:1]” are 20 µM, 91 µM and 8 µM.
Consider Ac-VIWRGGSTDYNAAFMS-NH2 [SEQ ID NO:20], for which the IC50 under setting [1] was 86 µM, the IC50 under setting [2] was found to be 150 µM and the IC50 under setting [3] stood at 37 µM.
With Ac-LLIYYVSNRYTG-NH2 [SEQ ID NO:17], the IC50 reads like this: under setting [1], 155 µM; under setting [2], 210 µM; under setting [3], 51 µM.
